What all share (type): cell-based, human
Assay [1] has as its system peptide-pulsed A24-LCL cells. Kind of assay: CTL line establishment, IFN-gamma ELISA. The conditions noted are these: HLA-A24 peptides; vs target without peptide pulse. In a few lines:
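CTL lines were expanded with MMC-inactivated B-lymphoblastoid feeders, 40 ng/ml anti-CD3 and IL-2 in AIM-V/5% AS. IFN-gamma ELISPOT identified specific wells, and ELISA determined established lines, using responders stimulated by peptide-pulsed A24-LCL or T2 cells at 1×10^4/well.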
A general note: In an ELISA, binding on a coated surface is turned into a signal by an enzyme label.

The test system of assay [2] is peptide-pulsed A24-LCL cells. The experiment in a line: CTL clones by limiting dilution, specific CTL activity. As to conditions: HLA-A24 peptides; vs target without peptide pulse. The protocol:
The dilutions were made to have 0.3, 1, and 3 CTLs/well in 96 round-bottomed micro titer plate (Nalge Nunc International). CTLs were cultured with 7×10^4 cells/well of 2 kinds of human B-lymphoblastoid cell lines, 30 ng/ml of anti-CD3 antibody, and 125 U/ml of IL-2 in total of 150 micro 1/well of AIM-V containing 5% AS. 50 micro 1/well of IL-2 was added to the medium 10 days later so that IL-2 became 125 U/ml in the final concentration. CTL activity of CTLs was tested on the 14th day, and CTL clones were expanded using the same method above.
Briefly, peptide-pulsed A24-LCL or T2 cell (1×10^4/well) was prepared as stimulator cells. Cultured Cells in 48 wells or CTL clones after limiting dilution were used as responder cells. IFN-gamma ELISPOT assay and ELISA assay were performed under manufacture procedure.

Assay [3] has as its system peptide-pulsed A24-LCL cells. The experiment in a line: IFN-gamma ELISPOT assay (positive wells). As to conditions: HLA-A24 peptides; as compared to the control. Put shortly:
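PBMC-derived DCs from HLA-A*2402 and/or A*0201 donors, pulsed with 20 micro g/ml peptide plus 3 micro g/ml beta 2-microglobulin, stimulated autologous CD8+ T cells three times (days 0, 7, 14). On day 21, responders were tested against peptide-pulsed A24-LCL or T2 cells by IFN-gamma ELISPOT. Values are reported as positive wells/wells tested; CTL lines confirmed by ELISA.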

Consider YLLGVVLTL [SEQ ID NO: 387], for which the “Establishment of CTL line, specific CTL activity against the peptide-pulsed target determined by ELISA” value in assay [1] was “CTL lines were established”. Moreover, the “CTL activities of CTL clones against the peptide-pulsed target” value in assay [2] is “potent and specific CTL activities”. Moreover, the “IFN-gamma production by IFN-gamma ELISPOT assay” value in assay [3] is given as “potent IFN-gamma production”.

The values above are taken from US8759481B2, “Peptide vaccines for cancers expressing tumor-associated antigens” (Oncotherapy Science, Inc., priority 2007, dated 2014).
